# Literature values as cited in US20260224647A1, “Microbial compositions for treating joint inflammation” (Katholieke Universiteit Leuven, priority 2023, published 2026).
# Test system: rheumatoid arthritis
# Conditions: twice daily administration
substance,measurement,value
Lactobacillus rhamnosus GG,Activity of rheumatoid arthritis,no statistically significant differences
